Consider 44 molecules from patent US11046691B1 (IDEAYA BIOSCIENCES, INC., priority 2018, dated 2021).

T1 sequence (P31153 whole entry): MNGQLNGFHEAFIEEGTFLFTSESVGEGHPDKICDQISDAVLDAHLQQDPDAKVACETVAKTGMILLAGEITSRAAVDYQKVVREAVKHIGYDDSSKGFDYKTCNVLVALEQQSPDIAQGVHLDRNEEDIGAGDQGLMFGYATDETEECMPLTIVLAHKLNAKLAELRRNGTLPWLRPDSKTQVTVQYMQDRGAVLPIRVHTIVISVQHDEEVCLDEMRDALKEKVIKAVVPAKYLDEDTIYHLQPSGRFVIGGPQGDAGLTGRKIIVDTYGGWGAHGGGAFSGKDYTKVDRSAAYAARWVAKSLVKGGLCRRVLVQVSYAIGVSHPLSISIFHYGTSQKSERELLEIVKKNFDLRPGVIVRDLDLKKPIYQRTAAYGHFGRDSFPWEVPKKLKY

The first assay addresses T1, hMAT2A (Homo sapiens (Human), UniProt P31153). Kind of assay: Phosphate Sensor Fluorescence Assay (MAT2A enzyme inhibition). The assay is classed as biochemical. As to conditions: L-methionine 500 uM, ATP 500 uM, class symbols. In a few lines:
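Recombinant MAT2A preincubated 15 min at room temperature with compound, then reacted 1 h at room temperature with 500 uM L-methionine and 500 uM ATP in Tris pH 7.5 buffer containing PNP/7-MEG.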
`COc1nc(=O)n(-c2ccccc2)c2cc(C3CC3)ccc12` [Example 399, 7-cyclopropyl-4-methoxy-1-phenyl-hydroquinazolin-2-one] returned an IC50 of under 200 nM.

`Cc1ncccc1-n1c(=O)nc(NCC(F)F)c2ccc(C(F)(F)F)cc21` [Example 282, 4-((2,2-difluoroethyl)amino)-1-(2-methylpyridin-3-yl)-7-(trifluoromethyl)-quinazolin-2(1H)-one] came in with an IC50 of under 200 nM.

In the case of `CNc1nc(=O)n(-c2ccc(C)nc2)c2nc(C(F)(F)F)ccc12` [Example 314], the IC50 was under 200 nM.

In turn, `CNc1nc(=O)n(-c2ncccc2Cl)c2cc(Cl)ccc12` [Example 370, 7-chloro-1-(3-chloro(2-pyridyl))-4-(methylamino)hydroquinazolin-2-one] had an IC50 of under 200 nM.

On to `Cc1ccccc1-n1c(=O)nc(N)c2ccc(C(F)(F)F)cc21` [Example 125, 4-amino-1-(2-methylphenyl)-7-(trifluoromethyl)hydroquinazolin-2-one], for which the IC50 is under 200 nM.

`CNc1nc(=O)n(-c2ccccc2Cl)c2cc(C3CC3)c(Br)cc12` [Example 417, 6-bromo-1-(2-chlorophenyl)-7-cyclo-propyl-4-(methylamino)hydro-quinazolin-2-one] yielded an IC50 of under 200 nM.

With `CNc1nc(=O)n(-c2ccccc2Cl)c2cc(C(F)(F)F)c(F)cc12` [Example 304, 1-(2-chlorophenyl)-6-fluoro-4-(methyl-amino)-7-(trifluoromethyl)hydro-quinazolin-2-one], the IC50 is under 200 nM.

With `O=c1nc(N2CCOCC2)c2ccc(C(F)(F)F)nc2n1-c1ccccc1Cl` [Example 286, 1-(2-chlorophenyl)-4-morpholin-4-yl-7-(trifluoromethyl)pyrido[2,3-d]pyrimidin-2(1H)-one], the IC50 is under 200 nM.

On to `NC(=O)[C@H]1CCCN1c1nc(=O)n(-c2ccccc2)c2cc(Cl)ccc12` [Example 241, (2R)-1-(7-chloro-2-oxo-1-phenylhydro-quinazolin-4-yl)pyrrolidine-2-carboxamide], for which the IC50 was 1000 to 10000 nM.

As for `CNc1nc(=O)n(-c2cccc(CC(=O)O)c2)c2cc(Cl)ccc12` [Example 419, 2-(3-(7-chloro-4-(methylamino)-2-oxoquinazolin-1(2H)-yl)phenyl)acetic acid], the IC50 is under 200 nM.

`CNc1nc(=O)n(-c2ccccc2)c2cc(Cl)cc(OCCO)c12` [Example 185, 7-chloro-5-(2-hydroxyethoxy)-4-(methylamino)-1-phenylhydro-quinazolin-2-one] gave an IC50 of under 200 nM.

`CNc1nc(=O)n(-c2ccc(F)c(O)c2)c2cc(Cl)ccc12` [Example 310, 7-chloro-1-(4-fluoro-3-hydroxyphenyl)-4-(methylamino)hydroquinazolin-2-one] displayed an IC50 of under 200 nM.

The molecule `O=c1nc(NCC(F)F)c2ccc(C3CC3)cc2n1-c1ccccc1` [Example 373] gave an IC50 of under 200 nM.

Regarding `NC(=O)CNc1nc(=O)n(-c2ccccc2Cl)c2nc(C(F)(F)F)ccc12` [Example 287, 2-((1-(2-chlorophenyl)-2-oxo-7-(trifluoromethyl)-1,2-dihydropyrido[2,3-d]pyrimidin-4-yl)amino)acetamide], the IC50 is under 200 nM.

`O=c1nc(NC2COC2)c2ccc(C(F)(F)F)nc2n1-c1ccccc1Cl` [Example 274, 1-(2-chlorophenyl)-4-(oxetan-3-yl-amino)-7-(trifluoromethyl)pyrido[2,3-d]pyrimidin-2(1H)-one]: the IC50 is under 200 nM.

The molecule `O=c1nc(N2CC[C@@H](O)C2)c2ccc(C3CC3)cc2n1-c1ccccc1` [Example 374, 4-((3R)-3-hydroxypyrrolidinyl)-7-cyclopropyl-1-phenylhydroquazolin-2-one] came in with an IC50 of under 200 nM.

`CNc1nc(=O)n(-c2ccccc2C)c2cc(C3CC3)ccc12` [Example 352, 7-cyclopropyl-4-(methylamino)-1-(2-methylphenyl)hydroquinazolin-2-one] came in with an IC50 of under 200 nM.

Staying with this assay, now noted: L-methionine 500 uM, ATP 500 uM, numeric bound.
On to `O=c1[nH]c(=O)n(-c2cccc(C(F)F)c2)c2cc(Cl)ccc12` [Example 354, 7-chloro-1-(3-difluoromethylphenyl)-quinazoline-2,4(1H,3H)-dione], for which the IC50 was over 10000 nM.

Turning to `O=c1ncc2ccc(Cl)cc2n1-c1ccccc1` [Example 191, 7-chloro-1-phenylhydroquinazolin-2-one], the IC50 was over 10000 nM.

The molecule `O=c1nc(NCC(F)F)c2ccc(Cl)cc2n1-c1ccc2nccn2c1` [Example 249, 4-[(2,2-difluoroethyl)amino]-7-chloro-1-(4-hydroimidazo[1,2-a]pyridin-6-yl)-hydroquinazolin-2-one] came in with an IC50 of over 10000 nM.

The next assay concerns the target T1, hMAT2A. Put plainly: Malachite Green Assay (MAT2A enzyme inhibition). As to conditions: hMAT2A 50 nM, substrates 500 uM each, 1 hour. The assay is classed as biochemical. The method, then:
The ability of the compound of present disclosure to inhibit MAT2A enzyme was determined using the Malachite Green or Phosphate Sensor Fluorescence Assay described below.
L-methionine Substrate: Alfa Aesar catalog #J61904
ATP Substrate: Alfa Aesar cat #J60336
Malachite Green Detection Reagent: Millipore Sigma catalog #MAK307-1KT
Assay buffer: 50 mM Tris, pH 7.5/50 mM KCl/10 mM MgCl2/0.01% Brij-35/1 mM DTT/0.1% BGG
The plate was centrifuged at 1000 rpm for 1 minute and then incubated at room temperature for 1 hour. 5 μL of malachite green detection reagent was added to all the test wells and the plate was centrifuged at 1000 rpm for 1 minute and then incubated at room temperature for 30 minutes. The plate was read for absorbance at 620 nm on a plate reader (e.g., Infinite M1000).
As to `CNc1nc(=O)n(-c2ccccc2)c2cc(Cl)c(OC)cc12` [Example 73, 7-chloro-6-methoxy-4-(methylamino)-1-phenylquinazolin-2(1H)-one], the IC50 is under 200 nM.

Regarding `CNc1nc(=O)n(-c2ccccc2)c2cc(C)ccc12` [Example 44, 7-methyl-4-(methylamino)-1-phenyl-quinazolin-2(1H)-one], the IC50 is under 200 nM.

`CNc1nc(=O)n(-c2ccccc2)c2cc(Cl)c(F)cc12` gave an IC50 of under 200 nM.

`CNc1nc(=O)n(-c2ccccc2)c2cc(Br)ccc12` came in with an IC50 of under 200 nM.

Turning to `Cc1c(Cl)ccc2c(N(C)C)nc(=O)n(-c3ccccc3)c12` [Example 43, 7-chloro-4-(dimethylamino)-8-methyl-1-phenyl-quinazolin-2(1H)-one], the IC50 fell in the range of 1000 to 10000 nM.

Consider `CNc1nc(=O)n(-c2ccccc2)c2cc(C3CC3)ccc12` [Example 45, 7-cyclopropyl-4-(methylamino)-1-phenylquinazolin-2(1H)-one], for which the IC50 was under 200 nM.

The molecule `O=c1nc(N2CC[C@H](O)C2)c2ccc(Cl)cc2n1-c1ccccc1` [Example 26, (S)-7-chloro-4-(3-hydroxypyrrolidin-1-yl)-1-phenylquinazolin-2(1H)-one] displayed an IC50 of under 200 nM.

`CN(c1nc(=O)n(-c2cccc(F)c2)c2cc(Cl)ccc12)C1CC1` [Example 39, 7-chloro-4-(cyclopropylmethylamino)-1-(3-fluorophenyl)hydroquinazolin-2-one]: the IC50 is under 200 nM.

As for `CN(C)CCN(C)c1nc(=O)n(-c2ccccc2)c2cc(Cl)ccc12` [Example 63, 7-chloro-4-((2-(dimethylamino)ethyl)-(methyl)-amino)-1-phenylquinazolin-2(1H)-one], the IC50 lay in the range of 1000 to 10000 nM.

Molecule `O=c1nc(NC2COC2)c2ccc(Cl)cc2n1-c1ccccc1` [Example 21, 7-Chloro-4-(oxetan-3-ylamino)-1-phenylquinazolin-2(1H)-one] yielded an IC50 of 200 to 500 nM.

`COc1cccc(-n2c(=O)nc(N(C)C)c3ccc(Cl)cc32)c1` [Example 76]: the IC50 is under 200 nM.

Molecule `CNc1nc(=O)n(-c2ccccc2)c2cc(OC)ccc12` [Example 49, 7-methoxy-4-(methylamino)-1-phenyl-quinazolin-2(1H)-one] yielded an IC50 of under 200 nM.

For the molecule `CN(C)c1nc(=O)n(-c2ccccc2)c2cc(F)ccc12` [Example 35, 4-(dimethylamino)-7-fluoro-1-phenyl-quinazolin-2(1H)-one], the IC50 is under 200 nM.

The molecule `CN(C)c1nc(=O)n(-c2cccc(C#N)c2)c2cc(Cl)ccc12` [Example 81, 3-[4-(dimethylamino)-7-chloro-2-oxohydroquinazolinyl]benzenecarbo-nitrile] returned an IC50 of under 200 nM.

With `CNc1nc(=O)n(-c2cccc(CCO)c2)c2cc(Cl)ccc12` [Example 47, 7-chloro-1-[3-(2-hydroxyethyl)phenyl]-4-(methylamino)-hydroquinazolin-2-one], the IC50 is under 200 nM.

In the case of `CN(C)c1nc(=O)n(-c2cccc(CO)c2)c2cc(Cl)ccc12` [Example 77], the IC50 was under 200 nM.

The molecule `O=c1nc(-n2cccn2)c2ccc(Cl)cc2n1-c1ccccc1` [Example 29, 7-chloro-1-phenyl-4-(1H-pyrazol-1-yl)quinazolin-2(1H)-one] showed an IC50 of 1000 to 10000 nM.

With `CN(C)c1nc(=O)n(-c2cccc(NS(C)(=O)=O)c2)c2cc(Cl)ccc12` [Example 52, N-(3-(7-chloro-4-(dimethylamino)-2-oxoquinazolin-1 (2H)-yl)phenyl)-methanesulfonamide], the IC50 was under 200 nM.

Take `CNc1nc(=O)n(-c2cncs2)c2cc(Cl)ccc12` [Example 18, 7-chloro-4-(methylamino)-1-(thiazol-5-yl)-quinazolin-2(1H)-one]: the IC50 is under 200 nM.

`CN(C)c1nc(=O)n(-c2ccccc2)c2c(Cl)c(Cl)ccc12` [Example 42, 7,8-dichloro-4-(dimethylamino)-1-phenylquinazolin-2(1H)-one] returned an IC50 of 200 to 500 nM.

`O=c1nc(NCC(F)F)c2ccc(Cl)cc2n1-c1ccccc1` [Example 31, 7-chloro-4((2,2-difluoroethyl)amino)-1-phenyl-quinazolin-2 (1H)-one] yielded an IC50 of 500 to 1000 nM.

`O=c1nc(N2CCCC2)c2ccc(Cl)cc2n1-c1ccccc1` [Example 67, 7-chloro-1-phenyl-4-(pyrrolidin-1-yl)-quinazolin-2(1H)-one] came in with an IC50 of under 200 nM.

`O=c1nc(N2CC(O)C2)c2ccc(Cl)cc2n1-c1ccccc1` [Example 74, 7-chloro-4-(3-hydroxyazetidin-1-yl)-1-phenylquinazolin-2(1H)-one] yielded an IC50 of under 200 nM.

In turn, `CNc1nc(=O)n(-c2ccccc2F)c2cc(Cl)ccc12` [Example 57, 7-chloro-1-(2-fluorophenyl)-4-(methylamino)quinazolin-2(1H)-one] showed an IC50 of under 200 nM.
